Source: patent US6548042B2, “Bis-phosphonate compounds” (priority 2000, dated 2003)

Test system: MT-1 cells
Test: Antitumour efficacy, MT-1 skeletal metastases model in nude rats
Assay type: in vivo
Conditions: for Mean survival time: 7 days after cell injection
Experimental: Initially, a skeletal metastases model in nude rats, including the human breast carcinoma line MT-1 (1) was tested. A total of 1×10^6 cells were injected into the left vintricula of the heart (L.V.) of 4-5 weeks old nude rats (2). A primary osteogenic sarcoma model in nude rats, was established by intratibial (i.t.) injection of 1×10^6 OHS cells (3-5). A total of 20 animals, allocated in four groups (n=5 for each group) were used for both cell lines. The animals inoculated with MT-1 cells were treated with 200, 300 or 400 MBq/kg of 46a seven days after cell injection. The animals inoculated with OHS cells were treated with 100, 200 or 400 MBq/kg of 46a seven days after cell inoculation. The control groups (MT-1 and OHS) received saline only. Doses were corrected for the actual weight of each animal and administered by single bolus tail vein injections.
The MT-1 model simulates formation of mixed lytic/sclerotic skeletal metastasis in breast cancer patients. The model had recently been established in immuno-deficient rats by injections into the left ventricula (L.V.) of the oestrogen receptor-negative human breast cancer (MT-1) cell line.^83,84,85 In this model, large masses of tumour cells build up in the spine, replacing the normal bone marrow and eroding the bone part of the spine.
Treatment with the hydroxybisphosphonate 46a was initiated 7 days after tumour cell inoculation, while the control group received saline only. […] In comparison, the mean survival times for the animals treated with 46a were 27.5 days (range 23-29, one survivor), 29.0 days (range 27-33) and 30.6 days (range 29-33) with increasing dose of 200, 300 and 400 MBq/kg, respectively (n=5 in each group).

In the case of `O=P(O)(O)C(O)(Cc1cccc([131I])c1)P(=O)(O)O` [46a, 1-hydroxy(m-[^131I and ^125I]-iodophenyl)-ethylidene-1,1-bisphosphonic acid], the “Survival time, range” value (200 MBq/kg) is reported as 23 to 29 days, the Mean survival time (200 MBq/kg, n=5) is reported as 27.5 days and the Long time survivors (200 MBq/kg, n=5) is reported as “one survivor”. For the same compound, the “Survival time, range” value (300 MBq/kg) was 27 to 33 days, the Mean survival time (300 MBq/kg, n=5) was 29.0 days and the “Survival time, range” value (400 MBq/kg) was 29 to 33 days. For the same compound, the Mean survival time (400 MBq/kg, n=5) was 30.6 days, the “p of increased survival time (lifetime) compared with controls” value (all dose levels (200, 300, 400 MBq/kg), Wilcoxon rank-sum test, long time survivors excluded) was < 0.05 and the Lifetime after treatment (breast cancer model) was “increased lifetime”.
